For 18 compounds, Emax and DC50 results are on record in ChEMBL document CHEMBL6092203, “Discovery of Novel PROTAC-Based HPK1 Degraders with High Potency and Selectivity for Cancer Immunotherapy” (J Med Chem, 2024).

A word on the Emax: it is the greatest response seen or fitted, relative to the assay's reference.

The target in test [1] is T1, Protein cereblon/Mitogen-activated protein kinase kinase kinase kinase 1 (Homo sapiens, UniProt Q92918+Q96SW2). Description: PROTAC activity at CRBN/HPK1 in human Jurkat cells assessed as maximum degradation incubated for 24 hrs by Western blotting analysis. The class given is cell-based. On the technique in general: Immunoblotting shows a protein as a band on a membrane.
Target sequence in this assay (Q92918 whole entry, looked up): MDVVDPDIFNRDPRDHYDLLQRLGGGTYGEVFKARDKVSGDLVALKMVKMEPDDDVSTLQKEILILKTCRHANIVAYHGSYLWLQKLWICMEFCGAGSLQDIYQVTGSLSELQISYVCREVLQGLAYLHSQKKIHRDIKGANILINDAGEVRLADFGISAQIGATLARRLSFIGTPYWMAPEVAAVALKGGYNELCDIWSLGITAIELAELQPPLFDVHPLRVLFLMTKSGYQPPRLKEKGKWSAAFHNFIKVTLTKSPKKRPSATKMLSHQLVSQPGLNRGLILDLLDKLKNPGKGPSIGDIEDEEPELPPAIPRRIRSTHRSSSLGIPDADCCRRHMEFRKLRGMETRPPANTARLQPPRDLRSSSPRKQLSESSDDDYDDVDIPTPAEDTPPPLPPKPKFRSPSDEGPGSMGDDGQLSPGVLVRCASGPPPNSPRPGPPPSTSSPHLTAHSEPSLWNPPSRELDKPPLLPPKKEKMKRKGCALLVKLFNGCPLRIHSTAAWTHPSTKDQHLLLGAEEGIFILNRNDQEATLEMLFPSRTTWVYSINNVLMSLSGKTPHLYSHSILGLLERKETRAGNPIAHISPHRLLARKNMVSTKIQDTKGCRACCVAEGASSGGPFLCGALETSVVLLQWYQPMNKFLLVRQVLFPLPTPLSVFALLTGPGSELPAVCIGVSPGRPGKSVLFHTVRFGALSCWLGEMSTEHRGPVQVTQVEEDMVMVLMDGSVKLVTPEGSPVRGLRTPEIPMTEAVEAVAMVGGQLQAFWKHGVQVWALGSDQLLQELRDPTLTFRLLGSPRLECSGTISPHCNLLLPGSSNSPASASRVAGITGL
Target sequence in this assay (Q96SW2 whole entry, looked up): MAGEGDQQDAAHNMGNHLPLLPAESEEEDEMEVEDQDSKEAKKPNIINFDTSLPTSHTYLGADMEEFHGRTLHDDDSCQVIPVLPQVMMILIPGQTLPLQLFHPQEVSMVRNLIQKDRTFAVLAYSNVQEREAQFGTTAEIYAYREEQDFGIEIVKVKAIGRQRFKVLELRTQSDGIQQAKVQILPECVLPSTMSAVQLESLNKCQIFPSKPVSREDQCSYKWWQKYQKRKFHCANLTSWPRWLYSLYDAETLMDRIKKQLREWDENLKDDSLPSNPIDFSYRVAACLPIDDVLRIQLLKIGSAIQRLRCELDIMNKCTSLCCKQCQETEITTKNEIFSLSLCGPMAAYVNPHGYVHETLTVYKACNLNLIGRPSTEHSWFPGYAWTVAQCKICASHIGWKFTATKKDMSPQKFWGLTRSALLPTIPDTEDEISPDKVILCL

Test [2] concerns the target T1, Protein cereblon/Mitogen-activated protein kinase kinase kinase kinase 1. Kind of test: PROTAC activity at CRBN/HPK1 in human Jurkat cells incubated for 24 hrs by Western blotting analysis. The test is classed as cell-based.
Target sequence in this assay (Q92918 whole entry): as the sequence (Q92918 whole entry, looked up) above
Target sequence in this assay (Q96SW2 whole entry): as the sequence (Q96SW2 whole entry, looked up) above

Consider `O=C1CCN(c2cc(C(=O)N3CCC(CC4CCN(c5ccc(-c6cnc7[nH]cc(-c8cn[nH]c8)c7n6)cn5)CC4)CC3)ccc2Cl)C(=O)N1`, for which the Emax in test [1] turned out to be 92%. The compound further yielded a DC50 in test [2] of 32.9 nM.

For `CCN1CCC(n2cc(-c3c[nH]c4ncc(-c5ccc(N6CCC(CN7CCN(C(=O)c8ccc(Cl)c(N9CCC(=O)NC9=O)c8)CC7)CC6)nc5)nc34)cn2)CC1`, the Emax in test [1] came to 77%. Besides, the DC50 in test [2] was found to be 2.1 nM.

Consider `O=C1CCN(c2cc(C(=O)N3CCC(CC4CCN(c5ccc(-c6cnc7[nH]cc(-c8cnn(CC9CC9)c8)c7n6)cn5)CC4)CC3)ccc2Cl)C(=O)N1`, for which the Emax in test [1] worked out at 52%. The compound also displayed a DC50 in test [2] of 632 nM.

Take `CCN1CCC(n2cc(-c3c[nH]c4ncc(-c5ccc(N6CCC(CC7CCN(C(=O)c8ccc(C)c(N9CCC(=O)NC9=O)c8)CC7)CC6)cc5)nc34)cn2)CC1`: the Emax in test [1] was found to be 53%. The same compound showed a DC50 in test [2] of 616 nM.

For `[2H]C([2H])([2H])n1cc(-c2c[nH]c3ncc(-c4ccc(N5CCC(CC6CCN(C(=O)c7ccc(Cl)c(N8CCC(=O)NC8=O)c7)CC6)CC5)nc4)nc23)cn1`, the DC50 in test [2] amounted to 12.7 nM.

Consider `O=C1CCN(c2cc(C(=O)N3CCC(CC4CCN(c5ccc(-c6cnc7[nH]cc(-c8cnn(CC(F)F)c8)c7n6)cn5)CC4)CC3)ccc2Cl)C(=O)N1`, for which the Emax in test [1] came to 81%. The DC50 in test [2] came to 18.7 nM.

In the case of `CCN1CCC(n2cc(-c3c[nH]c4ncc(-c5ccc(N6CCC(F)(CN7CCN(C(=O)c8ccc(Cl)c(N9CCC(=O)NC9=O)c8)CC7)CC6)cc5)nc34)cn2)CC1`, in test [1], the Emax came to 58%. In addition, the DC50 in test [2] worked out at 230 nM.

Turning to `CC(C)(C#N)n1cc(-c2c[nH]c3ncc(-c4ccc(N5CCC(CC6CCN(C(=O)c7ccc(Cl)c(N8CCC(=O)NC8=O)c7)CC6)CC5)nc4)nc23)cn1`, in test [1], the Emax came to 64%. In addition, the DC50 in test [2] came out at 214 nM.

For `CCN1CCC(n2cc(-c3c[nH]c4ncc(-c5ccc(N6CCC(OC7CCN(C(=O)c8ccc(Cl)c(N9CCC(=O)NC9=O)c8)CC7)CC6)c(F)c5)nc34)cn2)CC1`, in test [1], the Emax was found to be 78%. The DC50 in test [2] amounted to 7.2 nM.

As to `CCN1CCC(n2cc(-c3c[nH]c4ncc(-c5ccc(N6CCC(OC7CCN(C(=O)c8ccc(Cl)c(N9CCC(=O)NC9=O)c8)CC7)CC6)cc5)nc34)cn2)CC1`, in test [1], the Emax stood at 52%. Also, in test [2], the DC50 stood at 386 nM.

Consider `CCN1CCC(n2cc(-c3c[nH]c4ncc(-c5cnc(OCCNC(=O)c6ccc(Cl)c(N7CCC(=O)NC7=O)c6)c(C)c5)nc34)cn2)CC1`, for which the Emax in test [1] is 86%. This compound also registered a DC50 in test [2] of 55 nM.

As for `CCN1CCC(n2cc(-c3c[nH]c4ncc(-c5ccc(N6CCC(CC7CCN(C(=O)c8ccc(Cl)c(N9CCC(=O)NC9=O)c8)CC7C)CC6)cc5)nc34)cn2)CC1` (stereo not given), the Emax in test [1] is 66%. This compound registered a DC50 in test [2] of 23.5 nM.

On to `CCN1CCC(n2cc(-c3c[nH]c4ncc(-c5ccc(N6CCC(OC7CCN(C(=O)c8ccc(Cl)c(N9CCC(=O)NC9=O)c8)CC7)CC6)c(C)c5)nc34)cn2)CC1`, for which the Emax in test [1] was found to be 73%. Besides, the DC50 in test [2] came out at 29.3 nM.

As for `CCN1CCC(n2cc(-c3c[nH]c4ncc(-c5ccc(N6CCC(CC7CCN(C(=O)c8ccc(Cl)c(N9CCC(=O)NC9=O)c8)CC7)CC6)c(F)c5)nc34)cn2)CC1`, in test [1], the Emax is 63%. Further, in test [2], the DC50 turned out to be 176 nM.

As to `CCN1CCC(n2cc(-c3c[nH]c4ncc(-c5ccc(N6CCC(C)(CN7CCN(C(=O)c8ccc(Cl)c(N9CCC(=O)NC9=O)c8)CC7)CC6)cc5)nc34)cn2)CC1`, the Emax in test [1] was found to be 81%. The same compound displayed a DC50 in test [2] of 52.4 nM.

`O=C1CCN(c2cc(C(=O)N3CCC(CC4CCN(c5ccc(-c6cnc7[nH]cc(-c8cnn(CCO)c8)c7n6)cn5)CC4)CC3)ccc2Cl)C(=O)N1`: in test [1], the Emax is 84%. In test [2], this compound came in with a DC50 of 29 nM.

In the case of `COCCn1cc(-c2c[nH]c3ncc(-c4ccc(N5CCC(CC6CCN(C(=O)c7ccc(Cl)c(N8CCC(=O)NC8=O)c7)CC6)CC5)nc4)nc23)cn1`, the Emax in test [1] stood at 76%. The DC50 in test [2] was 30.6 nM.

On to `O=C1CCN(c2cc(C(=O)N3CCC(CC4CCN(c5ccc(-c6cnc7[nH]cc(-c8cnn(C9CC9)c8)c7n6)cn5)CC4)CC3)ccc2Cl)C(=O)N1`, for which, in test [1], the Emax worked out at 87%. In test [2], this compound registered a DC50 of 52.3 nM.
